# Source: PMC5682201 (European journal of medicinal chemistry, 2017)
# Assays:
# Format in all cases: cell-based
# NIH 3T3 = NIH 3T3 toxicity; settings: Table 4
# HepG2 = HepG2 toxicity; settings: Table 4
# L. major Amastigotes = assay: Leishmania major amastigote assay; settings: read-out: L. major Amastigotes EC50; Table 4; r^2 values >0.75
substance,measurement,setting,value
"6-(3-morpholinophenyl)-N-(1,2,4-triazin-3-yl)quinazolin-4-amine [9d]",NIH 3T3 TC50,NIH 3T3,>50 µM
same,HepG2 TC50,HepG2,>20 µM
same,EC50,L. major Amastigotes,> 15 µM
